Results: patent publication US20250360132A1, “METHODS OF ADMINISTERING MYOSIN INHIBITORS” (MYOKARDIA, INC., priority 2022, published 2025)

Key:
CYP3A4 [1] = biological target: T1, CYP3A4 (Homo sapiens, UniProt P08684); experiment: Clinical DDI with moderate CYP3A4 inhibitor verapamil; assay type: in vivo; design: host or cells: in silico (Simcyp v19 where stated); conditions: mavacamten 25 mg with verapamil sustained release 240 mg; CYP2C19 IMs and NMs
human lymphocyte = experiment: Human in vitro lymphocyte electrogenicity assay; assay type: cell-based
Excerpt: (§1) Mavacamten was not genotoxic in a bacterial reverse mutation test (Ames test), a human in vitro lymphocyte […] assay, or a rat in vivo micronucleus assay.

rat = experiment: Rat in vivo micronucleus assay
Excerpt: as §1

[2] = system: adults with symptomatic NYHA class II and III obstructive HCM; conditions: Olivotto et al., 2020, The Lancet; cited from earlier work
virtual oHCM patients = experiment: Exposure-response simulation of titration Regimen #2; design: species or system human; conditions: CYP2C19 phenotype distribution in the EU population
Excerpt: Mavacamten has substantial pharmacokinetic (PK) variability, the largest contributor being CYP2C19 phenotype. Beyond phenotype, and after incorporation of all PK covariates, a moderate inter-individual variability remains. As a result of the PK variability, there is a need to achieve an ideal balance of reducing the Valsalva left ventricular outflow tract gradient (VLVOT) while maintaining the patient's left ventricular ejection fraction (LVEF), and an echocardiogram (ECHO) based titration regimen was developed. Modeling and simulation analyses have been undertaken to further evaluate dose titration by CYP2C19 phenotype.
In addition, an exposure-response simulation-based approach was utilized to investigate multiple titration regimens using an equal distribution of CYP2C19 phenotype to allow for additional sensitivity in assessing the performance of the titration regimen for each phenotype. The evaluations included genotype specific dosing and titration, adjusted starting dose of 2.5 mg and additional monitoring intervals. For each posology investigated, the key objectives remained consistent: to limit the percent (%) of simulated patients experiencing LVEF <50%, while gradually up-titrating them to achieve VLVOT <30 mmHg. This Example outlines the evaluation of 3 titration regimens, described below.
The methods used to conduct the simulations are described as follows. […]

CYP3A4 [3] = biological target: T1, CYP3A4; experiment: In vitro CYP inhibition; assay type: in vitro ADME; conditions: at clinically relevant concentrations
Excerpt: (§2) Mavacamten is a CYP2B6 inducer.

CYP1A2 = CYP1A2 (Homo sapiens, UniProt P05177); experiment: In vitro CYP inhibition; assay type: in vitro ADME
CYP1A2, sequence (P05177 whole entry): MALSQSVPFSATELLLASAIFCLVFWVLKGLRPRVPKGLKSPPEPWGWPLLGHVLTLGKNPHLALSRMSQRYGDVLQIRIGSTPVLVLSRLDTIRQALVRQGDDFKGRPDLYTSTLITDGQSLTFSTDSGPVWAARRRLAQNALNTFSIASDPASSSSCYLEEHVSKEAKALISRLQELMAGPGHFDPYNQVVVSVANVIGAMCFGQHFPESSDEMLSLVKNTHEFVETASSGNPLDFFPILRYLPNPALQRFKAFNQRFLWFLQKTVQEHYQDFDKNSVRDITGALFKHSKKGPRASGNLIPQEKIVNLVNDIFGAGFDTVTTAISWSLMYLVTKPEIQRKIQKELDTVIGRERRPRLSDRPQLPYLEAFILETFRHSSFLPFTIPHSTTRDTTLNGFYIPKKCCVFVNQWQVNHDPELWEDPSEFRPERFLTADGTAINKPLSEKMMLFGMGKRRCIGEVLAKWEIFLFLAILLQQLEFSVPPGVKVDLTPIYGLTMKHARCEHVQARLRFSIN
Excerpt: as §2

CYP2C8 = CYP2C8 (Homo sapiens, UniProt P10632); experiment: In vitro CYP inhibition; assay type: in vitro ADME
CYP2C8, sequence (P10632 whole entry): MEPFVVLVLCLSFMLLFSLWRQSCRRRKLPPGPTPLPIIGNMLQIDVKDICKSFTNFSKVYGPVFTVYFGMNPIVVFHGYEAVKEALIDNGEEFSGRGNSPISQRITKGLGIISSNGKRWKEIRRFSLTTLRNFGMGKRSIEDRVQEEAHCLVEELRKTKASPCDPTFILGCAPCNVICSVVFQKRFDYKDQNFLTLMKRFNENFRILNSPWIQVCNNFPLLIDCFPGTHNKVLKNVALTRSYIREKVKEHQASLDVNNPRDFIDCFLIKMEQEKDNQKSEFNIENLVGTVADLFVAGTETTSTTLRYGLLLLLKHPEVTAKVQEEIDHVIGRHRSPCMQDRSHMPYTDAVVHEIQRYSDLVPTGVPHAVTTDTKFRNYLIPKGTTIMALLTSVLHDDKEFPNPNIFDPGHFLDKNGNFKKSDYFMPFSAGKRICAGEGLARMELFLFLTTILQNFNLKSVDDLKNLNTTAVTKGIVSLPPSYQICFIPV
Excerpt: as §2

CYP2D6 = CYP2D6 (Homo sapiens, UniProt P10635); experiment: In vitro CYP inhibition; assay type: in vitro ADME; conditions: at clinically relevant concentrations
CYP2D6, sequence (P10635 whole entry): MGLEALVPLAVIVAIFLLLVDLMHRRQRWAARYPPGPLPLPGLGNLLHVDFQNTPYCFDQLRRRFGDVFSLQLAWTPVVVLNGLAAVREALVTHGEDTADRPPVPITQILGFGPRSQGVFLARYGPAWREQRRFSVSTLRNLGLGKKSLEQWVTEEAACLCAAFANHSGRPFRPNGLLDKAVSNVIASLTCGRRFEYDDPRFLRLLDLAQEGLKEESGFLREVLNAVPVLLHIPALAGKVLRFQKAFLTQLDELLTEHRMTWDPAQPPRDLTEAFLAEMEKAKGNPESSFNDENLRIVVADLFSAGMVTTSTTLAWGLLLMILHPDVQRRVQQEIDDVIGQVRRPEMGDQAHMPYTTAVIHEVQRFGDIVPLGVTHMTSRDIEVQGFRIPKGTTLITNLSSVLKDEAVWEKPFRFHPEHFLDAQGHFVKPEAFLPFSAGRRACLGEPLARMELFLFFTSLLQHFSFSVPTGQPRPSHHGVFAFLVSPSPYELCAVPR
Excerpt: as §2

CYP2C9 = CYP2C9 (Homo sapiens, UniProt P11712); experiment: In vitro CYP inhibition; assay type: in vitro ADME; conditions: at clinically relevant concentrations
CYP2C9, sequence (P11712 whole entry): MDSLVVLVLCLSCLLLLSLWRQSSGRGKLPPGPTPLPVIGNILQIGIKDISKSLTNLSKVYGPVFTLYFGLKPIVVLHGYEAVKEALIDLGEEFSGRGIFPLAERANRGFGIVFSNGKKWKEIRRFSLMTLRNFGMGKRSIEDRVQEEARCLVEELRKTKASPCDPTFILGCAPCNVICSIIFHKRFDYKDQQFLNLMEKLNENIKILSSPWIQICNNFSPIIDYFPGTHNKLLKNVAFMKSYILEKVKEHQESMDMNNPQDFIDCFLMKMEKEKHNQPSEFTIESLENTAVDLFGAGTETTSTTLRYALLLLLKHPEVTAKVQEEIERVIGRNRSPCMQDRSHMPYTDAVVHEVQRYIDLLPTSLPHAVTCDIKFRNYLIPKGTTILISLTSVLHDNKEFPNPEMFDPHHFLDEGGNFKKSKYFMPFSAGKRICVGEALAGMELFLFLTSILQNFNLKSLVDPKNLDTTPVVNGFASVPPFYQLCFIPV
Excerpt: as §2

CYP2B6 = CYP2B6 (Homo sapiens, UniProt P20813); experiment: In vitro CYP inhibition; assay type: in vitro ADME
CYP2B6, sequence (P20813 whole entry): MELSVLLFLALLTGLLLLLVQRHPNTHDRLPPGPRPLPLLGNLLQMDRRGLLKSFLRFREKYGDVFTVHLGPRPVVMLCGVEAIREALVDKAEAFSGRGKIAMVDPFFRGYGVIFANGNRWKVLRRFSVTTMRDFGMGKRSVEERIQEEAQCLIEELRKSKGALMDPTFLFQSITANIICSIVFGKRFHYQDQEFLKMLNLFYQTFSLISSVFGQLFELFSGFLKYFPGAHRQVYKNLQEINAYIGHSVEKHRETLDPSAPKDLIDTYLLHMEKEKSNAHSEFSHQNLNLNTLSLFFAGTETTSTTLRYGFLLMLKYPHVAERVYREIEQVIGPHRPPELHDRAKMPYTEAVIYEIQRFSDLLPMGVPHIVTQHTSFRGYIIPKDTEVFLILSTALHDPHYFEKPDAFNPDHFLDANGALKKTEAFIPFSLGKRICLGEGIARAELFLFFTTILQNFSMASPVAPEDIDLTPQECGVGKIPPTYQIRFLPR
Excerpt: as §2

CYP2C19 = CYP2C19 (Homo sapiens, UniProt P33261); experiment: In vitro CYP inhibition; assay type: in vitro ADME; conditions: at clinically relevant concentrations
CYP2C19, sequence (P33261 whole entry): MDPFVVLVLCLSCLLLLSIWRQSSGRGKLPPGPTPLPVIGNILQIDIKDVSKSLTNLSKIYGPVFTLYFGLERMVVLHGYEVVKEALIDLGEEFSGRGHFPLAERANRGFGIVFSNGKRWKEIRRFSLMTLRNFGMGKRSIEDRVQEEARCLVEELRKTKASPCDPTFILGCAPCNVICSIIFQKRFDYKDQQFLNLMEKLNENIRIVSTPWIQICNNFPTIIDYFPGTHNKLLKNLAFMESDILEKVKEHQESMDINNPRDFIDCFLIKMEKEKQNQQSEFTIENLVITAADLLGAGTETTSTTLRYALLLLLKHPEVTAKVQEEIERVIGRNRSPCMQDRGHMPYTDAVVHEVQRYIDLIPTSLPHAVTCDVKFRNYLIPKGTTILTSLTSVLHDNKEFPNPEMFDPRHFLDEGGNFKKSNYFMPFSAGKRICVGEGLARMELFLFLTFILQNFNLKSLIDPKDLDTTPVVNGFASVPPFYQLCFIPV
Excerpt: as §2

T1 sequence (P08684 whole entry): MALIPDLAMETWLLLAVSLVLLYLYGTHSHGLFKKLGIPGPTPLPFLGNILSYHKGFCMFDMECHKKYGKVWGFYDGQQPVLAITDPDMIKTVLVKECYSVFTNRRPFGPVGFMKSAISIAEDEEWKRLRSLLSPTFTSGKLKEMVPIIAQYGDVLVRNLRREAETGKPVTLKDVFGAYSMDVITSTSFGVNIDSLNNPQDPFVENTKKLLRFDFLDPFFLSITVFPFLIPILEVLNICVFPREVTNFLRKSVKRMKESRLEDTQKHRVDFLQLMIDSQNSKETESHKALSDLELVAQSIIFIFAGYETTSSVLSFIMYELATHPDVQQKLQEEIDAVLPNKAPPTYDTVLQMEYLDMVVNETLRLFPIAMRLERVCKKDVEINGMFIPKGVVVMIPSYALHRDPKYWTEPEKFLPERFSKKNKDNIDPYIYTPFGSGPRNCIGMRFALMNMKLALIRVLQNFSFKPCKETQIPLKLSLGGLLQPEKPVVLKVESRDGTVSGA

## CC(C)n1c(=O)cc(N[C@@H](C)c2ccccc2)[nH]c1=O [mavacamten, (S)-3-Isopropyl-6-((1-phenylethyl)amino)pyrimidine-2,4(1H,3H)-dione]
CYP3A4 [1]
  Increase in mavacamten AUCinf: 15%
  Increase in mavacamten Cmax: 52%
Human lymphocyte
  Genotoxicity, human in vitro lymphocyte electrogenicity assay: not genotoxic
rat
  Genotoxicity, rat in vivo micronucleus assay: not genotoxic
[2]
  Clinical benefit in EXPLORER-HCM: effective in reducing LVOT gradients and improving symptoms, exercise performance and health status
Virtual oHCM patients
  patients excluded/permanently discontinued overall: < 0.5%
CYP3A4 [3]
  Inhibition of CYP3A4: not an inhibitor
CYP1A2
  Inhibition of CYP1A2: does not inhibit
CYP2C8
  Inhibition of CYP2C8: does not inhibit
CYP2D6
  Inhibition of CYP2D6: not an inhibitor
CYP2C9
  Inhibition of CYP2C9: not an inhibitor
CYP2B6
  Inhibition of CYP2B6: does not inhibit
CYP2C19
  Inhibition of CYP2C19: not an inhibitor
